The results in this text go back to article PMC12677653, “Inhibition of Tumor Lipogenesis and Growth by Peptide‐Based Targeting of SREBP Activation” (Advanced Science, 2025).

In general, AUC(0-t) refers to the area under the concentration-time curve up to a stated or last time point. A low value points to low exposure.

One series relates to SREBP2. Briefly: Immunofluorescence of SREBP2 nuclear translocation. Format: cell-based, human. As to conditions: Huh7 cells, peptide 15 μM, IGF1 100 ng/mL 8 h. On the procedure:
For endogenous SREBP1 and SREBP2 staining, the cells were washed with ice‐cold PBS and fixed with 4% paraformaldehyde in PBS at room temperature (around 20–25 °C) for 15 min. Then, the cells were treated with 0.1% Triton X‐100 for 5 min and blocked in 3% BSA for 1 h at room temperature. The cells were then incubated with primary antibody against SREBP1 (diluted 1:200) or SREBP2 (diluted 1:200) overnight at 4 °C. After incubation with fluorescent‐dye‐conjugated secondary antibody (diluted 1:1000; Thermo Fisher Scientific) in PBS containing 0.05% saponin, 5% goat serum and 0.5% BSA for 1 h at room temperature followed by DAPI (diluted 1:10 000; Thermo Fisher Scientific) staining of the cell nucleus for 10 min. Cells were examined using a laser confocal microscope (Zeiss LSM 900).
a) Following pretreatment with Insig1/2 loop 1 peptide (15 μM) and IGF1 stimulation (100 ng ml⁻¹, 8 h), Huh7 cells were subjected to immunofluorescence analysis (scale bar: 10 μm).

On the set-up of series [1]: species or system ICR male mice. As to conditions: mouse, in vivo, iv, 10 mg/kg. On the procedure: Figure 2 LNPs with a 1:1 ratio of TAT to cRGD effectively accumulate in tumor tissues. a) Schematic illustration of LNP composition. b,c) Biodistribution analysis of differently sized LNPs in Huh7 tumor‐bearing BALB/c‐nude mice (n = 3). (b) In vivo fluorescence imaging at 8, 12, 24, and 48 h post‐intravenous injection (10 mg kg^−1). The arrows indicate the tumor site. (c) Ex vivo fluorescence imaging of tumors and major organs harvested 48 h post‐injection. d,e) Optimization of TAT/cRGD peptide coating ratios for tumor‐targeted LNPs (n = 3). (d) In vivo fluorescence imaging at 12, 24, and 48 h post‐injection. The arrows indicate the tumor site. (e) Ex vivo fluorescence imaging of tumors and organs at 48 h. f) Pharmacokinetic profile of LNP@Insig1/2 loop 1 peptide versus free peptide (Insig1/2 loop 1 peptide) following intravenous administration in ICR mice (n = 3, 10 mg kg^−1). Plasma concentration‐time curves were quantified, and pharmacokinetic parameters were calculated: AUC (0–t) (h·ng mL^−1) and AUC (0–∞) (h·ng mL^−1). Data are expressed as mean ± SD (n = 3). Statistical significance was determined by one‐way analysis of variance (ANOVA). * p < 0.05, ** p < 0.01, *** p < 0.001, **** p < 0.0001, ns, no significance. TEXT PRINTED IN THE PICTURE: (f) Peptide: Tlast (h): 0.500±0; T1/2 (h): 0.084±0.0143; AUC(0-t) (h*ng/mL): 326±71.8; AUC(0-∞)(h*ng/mL): 331±73.0; Cl(L/kg/min): 0.518±0.109 | (f) LNP@Insig1/2 loop1 peptide: Tlast (h): 5.00±1.155; T1/2 (h): 0.724±0.183; AUC(0-t) (h*ng/mL): 4928±1425; AUC(0-∞)(h*ng/mL): 4955±1422; Cl(L/kg/min): 0.0337±0.0191 DOUBTS OF THE COPYIST ABOUT THIS PICTURE: Peptide, T1/2 (h): 0.084±0.0143, small print, 8 or 6 and 3 or 5 not certain / Peptide, AUC(0-t): 326±71.8, small print, 6 or 8 not certain / Peptide, AUC(0-∞): 331±73.0, small print, 3 or 8 not certain / Peptide, Cl: 0.518±0.109, small print, 8 and 9 not certain / LNP@Insig1/2 loop1 peptide, T1/2 (h): 0.724±0.183, small print, 8 and 3 not certain / LNP@Insig1/2 loop1 peptide, AUC(0-t): 4928±1425, small print, 9, 8 and 5 not certain / LNP@Insig1/2 loop1 peptide, AUC(0-∞): 4955±1422, small print, 9 and 5 not certain / LNP@Insig1/2 loop1 peptide, Cl: 0.0337±0.0191, small print, 3 and 9 not certain
The pharmacokinetic assay of Insig1/2 loop 1 peptide and LNP@ Insig1/2 loop 1 peptide was performed in ICR male mice. The male mice were administered intravenously (iv) at a dose of 10 mg kg^−1. Then, blood samples were collected into tubes containing EDTA at 0.083, 0.25, 0.5, 1, 2, 4, 8, 24 h (iv) after dosing. After centrifugation at 6000 rpm for 10 min at 4 °C, the obtained plasma samples were stored at ‐20 °C. Subsequently, the plasma samples were analyzed by liquid (LC‐MS/MS) chromatography‐tandem mass spectrometry analysis.

Another series has as its system tumor cell apoptosis. Briefly: TUNEL assay of tumor tissues. As to conditions: cryosections of Huh7 tumors, n = 4; peptide given as LNP 10 mg/kg iv; lenvatinib mesylate 2 mg/kg oral. The series is classed as in vivo, BALB/c athymic nude mice. On the procedure:
Representative micrographs are shown (scale bar: 20 µm). b,c) Cryosections of mouse tumor tissues were prepared for histological analysis. (b) Lipid accumulation was assessed by Oil Red O staining. Representative micrographs are shown (scale bar: 20 µm). (c) Apoptotic cells were detected by TUNEL assay. Representative micrographs are shown (scale bar: 20 µm). d,e) Quantitative analysis of (d) apoptotic areas (TUNEL‐positive regions) and (e) lipid droplet counts (Oil Red O‐positive particles) was performed. Data represent the mean ± SD (n = 4). Statistical significance was determined by one‐way analysis of variance (ANOVA). ** p < 0.01, **** p < 0.0001, ns, no significance.
Mouse tumor tissues were sectioned at 5 µm thickness. Apoptotic cells were counted using the colorimetric TUNEL System (Beyotime, C1091) according to the manufacturer's instructions. The total numbers of apoptotic cells were counted in six high‐power fields and presented as an average number of apoptotic cells per high‐power fields.

As for “RKKRRQRRRLYPCIDSHLGEPHKFKRE [Insig1/2 loop 1 peptide]”, in the series on SREBP2, the “IGF1-induced nuclear translocation of SREBP2” value is given as “inhibited”. Also, in series [1], the “AUC(0-t)” value amounted to 326 ± 71.8 ng·h/mL, the “AUC(0-∞)” value is 331 ± 73.0 ng·h/mL, the Cl was determined as 518 ± 109 mL/min/kg and the Tlast amounted to 0.500 ± 0 h. For the same sequence, the “cell apoptosis in tumor tissues (TUNEL)” value in the series with tumor cell apoptosis is “induced cell apoptosis in tumor tissues”.
